Test results as given in DBAASP.
In brackets after ≈: the same amount, converted by molar mass. Several values for one entry are separate records, joined by “and”; a condition that tells them apart may be missing. Identical values can stand only once.

Assays:
Experiment in all cases: ≥ marks a high value that may be exact or a test limit, other limits are often not marked, values filed in µg/mL are converted to µM
[1] = tested on: Bacillus subtilis
[2] = tested on: Salmonella enterica subsp. enterica serovar Typhimurium ATCC 14028
[3] = tested on: Klebsiella pneumoniae ATCC 13883
[4] = tested on: Staphylococcus aureus ATCC 25923
[5] = tested on: Enterococcus faecalis ATCC 29212
[6] = tested on: Escherichia coli DH5alpha
[7] = tested on: Pseudomonas aeruginosa ATCC 27853
[8] = tested on: Escherichia coli ATCC 25922
[9] = tested on: Pseudomonas aeruginosa CMCCB 10104
[10] = tested on: Candida albicans ATCC 2002
[11] = tested on: Escherichia coli
[12] = tested on: Staphylococcus aureus
[13] = tested on: Pseudomonas aeruginosa
[14] = tested on: Klebsiella pneumoniae
[15] = tested on: Acinetobacter baumannii
[16] = tested on: Acinetobacter baumannii ATCC 19606
[17] = tested on: Bacillus cereus
[18] = tested on: Pseudomonas aeruginosa PAO1

Compound | MIC [3] [µM] | MIC [4] [µM] | MIC [8] [µM] | MIC [9] [µM] | MIC [10] [µM] | MIC [11] [µM] | further results
CC[C@H](C)[C@H](NC(=O)[C@@H](NC(=O)[C@H](CC(C)C)NC(=O)[C@H](C)NC(=O)[C@@H]1CCCN1C(=O)CNC(=O)[C@H](Cc1ccc(O)cc1)NC(=O)[C@@H](N)CCCCN)C(C)C)C(=O)N[C@@H](C)C(=O)N[C@H](C(=O)N[C@@H](CCCCN)C(=O)N[C@@H](CCCCN)C(=O)N[C@@H](CO)C(=O)N[C@@H](CS)C(=O)N[C@@H](CO)C(=O)N[C@@H](CC(C)C)C(=O)N[C@H](C(=O)N[C@@H](Cc1ccccc1)C(=O)N[C@@H](CCCN=C(N)N)C(=O)N[C@@H](C)C(=O)O)[C@@H](C)O)C(C)C [KYGPALVIAVKKSCSLTFRA] |  |  |  |  |  | > 119 | MIC [17]: ≥ 119 µM
CC(C)C[C@H](NC(=O)[C@H](C)NC(=O)[C@H](Cc1c[nH]c2ccccc12)NC(=O)CNC(=O)[C@H](CCCN=C(N)N)NC(=O)[C@@H](N)CCCN=C(N)N)C(=O)N[C@@H](CCCN=C(N)N)C(=O)N1CCC[C@H]1C(=O)N[C@H](C(=O)N[C@@H](CC(C)C)C(=O)N[C@@H](C)C(=O)N[C@@H](Cc1ccccc1)C(=O)NCC(=O)N[C@@H](CCCN=C(N)N)C(=O)N[C@@H](CCCN=C(N)N)C(N)=O)C(C)C [RRGWALRPVLAFGRR] | 30 (≈ 54.3 µg/mL) | > 30 | > 30 |  |  |  | MIC [2]: > 30 µM; MIC [16]: > 30 µM; MIC [18]: 14.8 µM and 30 µM
CC(C)C[C@H](NC(=O)[C@H](CCCN=C(N)N)NC(=O)[C@H](CCCN=C(N)N)NC(=O)[C@H](C)NC(=O)[C@H](Cc1c[nH]c2ccccc12)NC(=O)CNC(=O)[C@H](CCCN=C(N)N)NC(=O)[C@@H](N)CCCN=C(N)N)C(=O)N[C@@H](C)C(=O)N[C@@H](Cc1ccccc1)C(=O)NCC(=O)N[C@@H](CCCN=C(N)N)C(=O)N[C@@H](CCCN=C(N)N)C(N)=O [RRGWARRLAFGRR] | 30 (≈ 49.7 µg/mL) | > 30 | > 30 |  |  |  | MIC [2]: > 30 µM; MIC [16]: > 30 µM; MIC [18]: > 30 µM
CC[C@H](C)[C@H](NC(=O)[C@@H](NC(=O)[C@@H](NC(=O)[C@@H](NC(=O)[C@H](CCCN=C(N)N)NC(=O)[C@H](CCCCN)NC(=O)[C@@H](NC(=O)CNC(=O)[C@@H]1CCCN1C(=O)[C@@H](NC(=O)[C@H](CO)NC(=O)[C@H](Cc1ccccc1)NC(=O)[C@@H](NC(=O)CNC(=O)[C@H](C)NC(=O)[C@H](CC(C)C)NC(=O)[C@@H]1CCCN1C(=O)[C@H](Cc1ccccc1)NC(=O)[C@H](CCCCN)NC(=O)[C@@H](N)CO)[C@@H](C)CC)C(C)C)C(C)C)C(C)C)C(C)C)C(C)C)C(=O)O [SKFPLAGIFSVPGVKRVVVI] |  |  |  |  |  | > 121 | MIC [17]: ≥ 121 µM
CC[C@H](C)[C@H](NC(=O)[C@H](Cc1ccccc1)NC(=O)[C@H](CCCCN)NC(=O)[C@H](C)NC(=O)[C@H](CC(C)C)NC(=O)[C@H](CC(=O)O)NC(=O)[C@H](CCCCN)NC(=O)[C@@H](N)C(C)C)C(=O)N[C@@H](C)C(=O)N[C@@H](CCCCN)C(=O)N[C@H](C(=O)N[C@H](C(=O)N[C@@H](C)C(=O)N[C@@H](CCCCN)C(=O)N[C@@H](CCC(N)=O)C(=O)NCC(=O)NCC(=O)N[C@@H](CS)C(=O)N[C@@H](Cc1ccc(O)cc1)C(=O)N[C@@H](CC(C)C)C(=O)O)C(C)C)[C@@H](C)O [VKDLAKFIAKTVAKQGGCYL] |  |  |  |  |  | > 59.4 | MIC [17]: ≥ 59.4 µM

Second part, led by results:

MIC [3] [µM] | MIC [4] [µM] | MIC [8] [µM] | MIC [9] [µM] | MIC [10] [µM] | MIC [11] [µM] | Compound | further results
8 (≈ 18.9 µg/mL) | 4 (≈ 9.46 µg/mL) |  |  |  |  | CC[C@H](C)[C@H](NC(=O)CN)C(=O)NCC(=O)N[C@@H](CCCCN)C(=O)N[C@@H](C)C(=O)N[C@@H](CC(C)C)C(=O)N[C@@H](CCCCN)C(=O)N[C@@H](CCCCN)C(=O)N[C@@H](C)C(=O)N[C@@H](CCCCN)C(=O)N[C@@H](CCCCN)C(=O)NCC(=O)N[C@H](C(=O)NCC(=O)N[C@@H](C)C(=O)N[C@H](C(=O)N[C@@H](CC(C)C)C(=O)N[C@@H](CCCCN)C(=O)N[C@H](C(=O)N[C@@H](CC(C)C)C(=O)N[C@H](C(=O)N[C@H](C(=O)NCC(=O)N[C@@H](CC(C)C)C(=O)O)[C@@H](C)O)[C@@H](C)O)C(C)C)C(C)C)[C@@H](C)CC [GIGKALKKAKKGIGAVLKVLTTGL] | MIC [1]: 8 µM (≈ 18.9 µg/mL); MIC [2]: 8 µM (≈ 18.9 µg/mL); MIC [5]: 32 µM (≈ 75.7 µg/mL); MIC [6]: 15 µM (≈ 35.5 µg/mL); MIC [7]: 45 µM (≈ 106 µg/mL)
 | 4.39 (≈ 8.79 µg/mL) | 2.19 (≈ 4.4 µg/mL) | 4.39 (≈ 8.79 µg/mL) | 2.19 (≈ 4.4 µg/mL) | 25 (≈ 50.1 µg/mL) | CC[C@H](C)[C@H](NC(=O)CN)C(=O)N[C@@H](CC(C)C)C(=O)N[C@@H](CO)C(=O)NCC(=O)N[C@H](C(=O)N[C@@H](CC(C)C)C(=O)NCC(=O)N[C@@H](CCSC)C(=O)NCC(=O)N[C@@H](CCCCN)C(=O)N[C@@H](CCCCN)C(=O)N[C@H](C(=O)N[C@H](C(=O)N[C@H]1CSSC[C@@H](C(=O)O)NC(=O)[C@H](CC(C)C)NC(=O)CNC(=O)[C@H](CO)NC(=O)[C@H](CC(C)C)NC(=O)CNC1=O)C(C)C)[C@@H](C)CC)C(C)C [GILSGVLGMGKKIVCGLSGLC] | MIC [12]: 50 µM (≈ 100 µg/mL)
 | 2.56 (≈ 8.6 µg/mL) | 2.56 (≈ 8.6 µg/mL) | 2.56 (≈ 8.6 µg/mL) | 5.11 (≈ 17.2 µg/mL) |  | CC[C@H](C)[C@H](NC(=O)[C@@H](NC(=O)[C@H](CC(=O)O)NC(=O)[C@H](CC(C)C)NC(=O)[C@H](CC(C)C)NC(=O)CN)[C@@H](C)O)C(=O)N[C@@H](CCCCN)C(=O)N[C@@H](CC(N)=O)C(=O)N[C@@H](CCSC)C(=O)N[C@@H](C)C(=O)N[C@@H](CC(C)C)C(=O)N[C@@H](CC(N)=O)C(=O)N[C@@H](C)C(=O)N[C@@H](C)C(=O)N[C@@H](CCCCN)C(=O)N[C@@H](CO)C(=O)N[C@@H](C)C(=O)NCC(=O)N[C@H](C(=O)N[C@@H](CO)C(=O)N[C@H](C(=O)N[C@@H](CC(C)C)C(=O)N[C@@H](CC(N)=O)C(=O)N[C@H](C(=O)N[C@@H](CC(C)C)C(=O)N[C@@H](CO)C(=O)N[C@H]1CSSC[C@@H](C(=O)O)NC(=O)[C@H]([C@@H](C)O)NC(=O)[C@H](CCCCN)NC(=O)[C@H](CO)NC(=O)[C@H](CC(C)C)NC(=O)[C@H](CCCCN)NC1=O)[C@@H](C)O)C(C)C)C(C)C [GLLDTIKNMALNAAKSAGVSVLNTLSCKLSKTC] | 
2.83 (≈ 5.67 µg/mL) | 22.6 (≈ 45.4 µg/mL) | 4 (≈ 8.02 µg/mL) |  |  | 64 (≈ 128 µg/mL) | CC[C@H](C)[C@H](NC(=O)[C@H](CCCCN)NC(=O)[C@H](CC(C)C)NC(=O)[C@H](C)NC(=O)[C@H](CCCCN)NC(=O)[C@H](CC(C)C)NC(=O)[C@H](C)NC(=O)CNC(=O)[C@H](CCCCN)NC(=O)[C@H](C)NC(=O)[C@@H](NC(=O)[C@@H](N)CCCCN)[C@@H](C)CC)C(=O)N[C@@H](C)C(=O)N[C@@H](CCCCN)C(=O)NCC(=O)N[C@@H](C)C(=O)N[C@@H](CC(C)C)C(=O)N[C@@H](CCCCN)C(=O)N[C@@H](C)C(=O)N[C@@H](CC(C)C)C(N)=O [KIAKGALKALKIAKGALKAL] | MIC [13]: 11.3 µM (≈ 22.7 µg/mL); MIC [14]: 8 µM (≈ 16 µg/mL); MIC [15]: ≥ 64 µM; MIC [16]: 1.41 µM (≈ 2.84 µg/mL); MIC [12]: 16 µM (≈ 32.1 µg/mL); MIC [7]: 11.3 µM (≈ 22.7 µg/mL)
 | 1.5 (≈ 6.6 µg/mL) | 0.749 (≈ 3.3 µg/mL) | 1.5 (≈ 6.6 µg/mL) | 0.749 (≈ 3.3 µg/mL) |  | CC[C@H](C)[C@H](NC(=O)CNC(=O)[C@@H](NC(=O)[C@H](CCCN=C(N)N)NC(=O)[C@@H](NC(=O)[C@@H](NC(=O)[C@H](CC(=O)O)NC(=O)[C@H](CCSC)NC(=O)CNC(=O)[C@@H](NC(=O)[C@H](CCC(=O)O)NC(=O)[C@H](CCCCN)NC(=O)CNC(=O)[C@@H](NC(=O)[C@H](CC(N)=O)NC(=O)[C@H](CCCCN)NC(=O)[C@H](C)NC(=O)CNC(=O)[C@H](CCCCN)NC(=O)[C@@H](NC(=O)[C@H](Cc1ccccc1)NC(=O)[C@H](CC(C)C)NC(=O)[C@H](CC(N)=O)NC(=O)[C@H](CCCCN)NC(=O)[C@@H](NC(=O)[C@H](C)NC(=O)[C@H](CCCCN)NC(=O)CNC(=O)[C@H](CO)NC(=O)[C@@H](NC(=O)[C@@H](N)CCCCN)[C@@H](C)CC)[C@@H](C)CC)[C@@H](C)CC)C(C)C)C(C)C)C(C)C)C(C)C)[C@@H](C)O)C(=O)N[C@@H](CC(=O)O)C(=O)N[C@H](C(=O)N[C@H](C(=O)NCC(=O)N[C@H]1CSSC[C@@H](C(=O)O)NC(=O)[C@H](CCC(=O)O)NC(=O)CNC(=O)[C@H](CCCCN)NC(=O)[C@H]([C@@H](C)CC)NC(=O)[C@H](CCCCN)NC1=O)C(C)C)C(C)C [KISGKAIKNLFIKGAKNVGKEVGMDVVRTGIDVVGCKIKGEC] | 
 | 4.79 (≈ 12.4 µg/mL) | 2.4 (≈ 6.2 µg/mL) | 4.79 (≈ 12.4 µg/mL) | 9.59 (≈ 24.8 µg/mL) |  | CC[C@H](C)[C@H](NC(=O)[C@@H](N)C(C)C)C(=O)N[C@H](C(=O)N[C@@H](Cc1ccccc1)C(=O)N[C@H](C(=O)N[C@@H](C)C(=O)N[C@@H](CO)C(=O)N[C@H](C(=O)N[C@@H](C)C(=O)N[C@@H](C)C(=O)N[C@@H](CCC(=O)O)C(=O)N[C@@H](CCSC)C(=O)N[C@@H](CCSC)C(=O)N[C@@H](CCC(N)=O)C(=O)N[C@@H](Cc1cnc[nH]1)C(=O)N[C@H](C(=O)N[C@@H](Cc1ccc(O)cc1)C(=O)N[C@H]1CSSC[C@@H](C(=O)O)NC(=O)[C@H](CCCCN)NC(=O)[C@H](CCCCN)NC(=O)[C@H](CO)NC(=O)[C@H](C)NC(=O)[C@H](C)NC1=O)C(C)C)C(C)C)C(C)C)C(C)C [VIVFVASVAAEMMQHVYCAASKKC] | 
